Where a name gives a salt, the structure may show the parent alone. Read-outs that look alike come from different tables or passages of the source.
Tested on: MYB mRNA
Assay: RT-qPCR splicing assay, MYB canonical junction (CJ) and alternative junction (AJ) mRNA
Format: cell-based, human
Conditions: Homo sapiens; for AC50: increase in MYB alternative junction (AJ) mRNA, read-out: MYB AJ AC50
Procedure, shortened: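 24 h treatment, 37 °C/5% CO2; A673 or K562; 11-pt 3-fold series, top 10 uM final; DMSO ≤0.25%. Cell lysis with DNase I, then 1-step RT-qPCR. Housekeeping normalization: PPIA (A673), GAPDH or GUSB (K562).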

[1] = Table 5 panel, canonical junction qPCR, compound concentration having 50% response in CJ decrease, read-out: MYB IC50 (decrease in CJ mRNA levels)
[2] = decrease in MYB canonical junction (CJ) mRNA, RT-qPCR, read-out: MYB CJ IC50

Compound | IC50 [1] [µM] | IC50 [2] [µM] | AC50 (RT-qPCR) [µM]
Cc1cn2nc(-c3cc(F)c4c(=O)n([C@H]5CCN(C)C6(CC6)C5)ncc4c3)cc(C)c2n1 [Compound 638] | < 0.1 | 0.1 to 1 | < 0.1
CN(c1ccc2c(=O)n(-c3ccc4nn(C)cc4c3)cnc2c1)C1CCNCC1 [Compound 180] | > 10 | > 10 | > 10
Cc1cn2cc(-c3cc(F)c4c(=O)n([C@H]5CNC[C@H]5C)ccc4c3)cc(F)c2n1 [Compound 652, 8-fluoro-6-(8-fluoro-2-methyl-imidazo[1,2-a]pyridin-6-yl)-2-[(3R,4R)-4-methylpyrrolidin-3-yl]isoquinolin-1-one] | 1 to 10 | 1 to 10 | 1 to 10
Cc1cn2nc(-c3cc4ncn(C5CCNCC5)c(=O)c4cc3F)cc(C)c2n1 [Compound 585, 7-{2,8-dimethylimidazo[1,2-b]pyridazin-6-yl}-6-fluoro-3-(piperidin-4-yl)quinazolin-4-one] | 1 to 10 | 1 to 10 | 1 to 10
Cc1cc(-c2cc(O)c3c(=O)n(C4CCNC5(CC5)C4)ncc3c2)cc2cn(C)nc12 (stereo not drawn) [Compound 561] | 1 to 10 | 0.1 to 1 | 1 to 10
Cc1cn2nc(-c3cc(O)c4c(=O)n(C5CCNCC5)ncc4c3)cc(C)c2n1 [Compound 541] | < 0.1 | < 0.1 | < 0.1
Cc1cn2nc(-c3cc(N)c4c(=O)n([C@@H]5CCNC5)ccc4c3)cc(C)c2n1 [Compound 646, 8-amino-6-(2,8-dimethylimidazo[1,2-b]pyridazin-6-yl)-2-[(3R)-pyrrolidin-3-yl]isoquinolin-1-one] | > 10 | 1 to 10 | > 10
Cc1cn2nc(-c3ccc4c(=O)n(C5CCNCC5)ccc4c3)cc(CC#N)c2n1 [Compound 520, 2-[2-methyl-6-[1-oxo-2-(4-piperidyl)-6-isoquinolyl]imidazo[1,2-b]pyridazin-8-yl]acetonitrile] | 0.1 to 1 | 0.1 to 1 | 0.1 to 1
Cc1cn2nc(-c3cc(N)c4c(=O)n([C@H]5CCNC5)ccc4c3)cc(C)c2n1 [Compound 645, 8-amino-6-(2,8-dimethylimidazo[1,2-b]pyridazin-6-yl)-2-[(3S)-pyrrolidin-3-yl]isoquinolin-1-one] | 1 to 10 | 1 to 10 | 1 to 10
C=Cc1cn(C2CCNCC2)c(=O)c2c(F)cc(-c3cc(F)c4nc(C)cn4c3)cc12 [Compound 559, 4-ethenyl-8-fluoro-6-{8-fluoro-2-methylimidazo[1,2-a]pyridin-6-yl}-2-(piperidin-4-yl)isoquinolin-1-one] | < 0.1 | < 0.1 | < 0.1
COc1cc(-c2ccc3c(=O)n(C4CCNCC4)ccc3c2)nn2cc(C)nc12 [Compound 514, 6-(8-methoxy-2-methyl-imidazo[1,2-b]pyridazin-6-yl)-2-(4-piperidyl) isoquinolin-1-one; hydrochloride] | < 0.1 | < 0.1 | < 0.1
Cc1cn2nc(-c3ccc4c(=O)n(C5CCNCC5)ccc4c3)cc(CC(=O)O)c2n1 [Compound 531, 2-[2-methyl-6-[1-oxo-2-(4-piperidyl)-6-isoquinolyl]imidazo[1,2-b]pyridazin-8-yl]acetic acid] | 0.1 to 1 | 0.1 to 1 | 0.1 to 1
CN1CCC(c2ccc3c(=O)n(-c4ccc5nn(C)cc5c4)cnc3c2)CC1 [Compound 177] | > 10 | > 10 | > 10
Cc1cc(-c2ccc3c(=O)n(N4CCN(C)CC4)cnc3c2)cc2cn(C)nc12 [Compound 175] | 1 to 10 | 1 to 10 | 1 to 10
Cc1cn2nc(-c3ccc4c(=O)n(C5CCNCC5)ccc4c3)cc(OCc3ccccc3)c2n1 [Compound 526, 6-(8-benzyloxy-2-methyl-imidazo[1,2-b]pyridazin-6-yl)-2-(4-piperidyl) isoquinolin-1-one] | 0.1 to 1 | 0.1 to 1 | 0.1 to 1
Cc1cc(-c2ccc3c(=O)n(C4CCNC5(CC5)C4)ncc3c2)cc2cn(C)nc12 (stereo not drawn) [Compound 512] | 1 to 10 | 1 to 10 | 1 to 10
Cc1cc(-c2ccc3c(=O)n(C4CC(C)(C)NC(C)(C)C4)cnc3n2)cc2cn(C)nc12 [Compound 179] | > 10 | > 10 | > 10
Cc1cn2nc(-c3ccc4c(=O)n(C5CCNCC5)ccc4c3)cc(Oc3cccnc3)c2n1 [Compound 550, 6-[2-methyl-8-(3-pyridyloxy)imidazo[1,2-b]pyridazin-6-yl]-2-(4-piperidyl)isoquinolin-1-one] | < 0.1 | < 0.1 | < 0.1
Cc1cn2nc(-c3ccc4c(=O)n(C5CCN(CCF)CC5)ncc4c3)cc(C)c2n1 [Compound 515] | 1 to 10 | 0.1 to 1 | 1 to 10

Compound | IC50 [1] [µM] | IC50 [2] [µM] | AC50 (RT-qPCR) [µM]
COC(=O)c1cc(-c2ccc3c(=O)n(C4CCNCC4)ccc3c2)nn2cc(C)nc12 [Compound 517, methyl 2-methyl-6-[1-oxo-2-(4-piperidyl)-6-isoquinolyl]imidazo[1,2-b]pyridazine-8-carboxylate] | 0.1 to 1 | 0.1 to 1 | 0.1 to 1
Cc1cn2nc(-c3ccc4c(=O)n(C5CCN(C)CC5)cnc4c3)cc(C)c2n1 [Compound 176] | 0.1 to 1 | 1 to 10 | 0.1 to 1
CNc1cc(-c2cc(C)c3nc(C)cn3n2)cc2ccn([C@H]3CCNC3)c(=O)c12 [Compound 647, 6-(2,8-dimethylimidazo[1,2-b]pyridazin-6-yl)-8-(methylamino)-2-[(3S)-pyrrolidin-3-yl]isoquinolin-1-one] | 1 to 10 | 1 to 10 | 1 to 10
Cc1cn2nc(-c3cc4ccn([C@H]5CCNC5)c(=O)c4cc3O)cc(C)c2n1 [Compound 641, 6-(2,8-dimethylimidazo[1,2-b]pyridazin-6-yl)-7-hydroxy-2-[(3S)-pyrrolidin-3-yl]isoquinolin-1-one] | < 0.1 | 0.1 to 1 | < 0.1
Cc1cn2nc(-c3cc(F)c4c(=O)n(C5CCNCC5)ncc4c3)cc(Oc3ccccc3)c2n1 [Compound 548, 8-fluoro-6-(2-methyl-8-phenoxy-imidazo[1,2-b]pyridazin-6-yl)-2-(4-piperidyl)phthala-zin-1-one] | < 0.1 | < 0.1 | < 0.1
Cn1ccc2c(cnn2-c2ccc3c(=O)n(C4CCNCC4)ccc3c2)c1=O [Compound 521] | 1 to 10 | 1 to 10 | 1 to 10
Cc1cn2nc(-c3cc(F)c4c(=O)n(C5CCNC5)cnc4c3)cc(C)c2n1 (stereo not drawn) [Compound 589, 7-{2,8-dimethylimidazo[1,2-b]pyridazin-6-yl}-5-fluoro-3-(pyrrolidin-3-yl)quinazolin-4-one] | 1 to 10 | 1 to 10 | 1 to 10
Cc1cn2nc(-c3cc(F)c4c(=O)n(C5CCN(C)CC5)ncc4c3)cc(C)c2n1 [Compound 539] | < 0.1 | < 0.1 | < 0.1
Cc1cn2cc(-c3cc(O)c4c(=O)n(C5CCNCC5)cnc4c3)cc(F)c2n1 [Compound 587, 7-{8-fluoro-2-methylimidazo[1,2-a]pyridin-6-yl}-5-hydroxy-3-(piperidin-4-yl)quinazolin-4-one] | < 0.1 | < 0.1 | < 0.1
Cn1cc2c(=O)n(-c3ccc4c(=O)n(C5CCNCC5)ccc4c3)ccc2n1 [Compound 530, 6-{2-methyl-4-oxopyrazolo[4,3-c]pyridin-5-yl}-2-(piperidin-4-yl)isoquinolin-1-one] | > 10 | > 10 | > 10
Cc1cn2cc(-c3cc4ncn(C5CCNCC5)c(=O)c4cc3F)cc(F)c2n1 [Compound 586, 6-fluoro-7-{8-fluoro-2-methylimidazo[1,2-a]pyridin-6-yl}-3-(piperidin-4-yl)quinazolin-4-one] | 0.1 to 1 | 0.1 to 1 | 0.1 to 1
Cc1cn2nc(-c3cc(F)c4c(=O)n(C5CCNCC5)ncc4c3)cc(C)c2n1 [Compound 540] | < 0.1 | < 0.1 | < 0.1
Cn1cc2cc(-c3ncc4c(=O)n(C5CCNCC5)ccc4n3)c(O)c(F)c2n1 [Compound 1123] | < 0.1 | < 0.1 | < 0.1
Cc1cn2nc(-c3ccc4c(=O)n(C5CCNCC5)cnc4c3)cc(C)c2n1 [Compound 181] | 0.1 to 1 | 0.1 to 1 | 0.1 to 1
Cc1cn2cc(-c3cc(O)c4c(=O)n(C5CCNC6(CC6)C5)ncc4c3)cc(Cl)c2n1 (stereo not drawn) [Compound 557] | 0.1 to 1 | 0.1 to 1 | 0.1 to 1
Cc1cn2nc(-c3ccc4c(=O)n(C5CCNCC5)ccc4c3)cc(-n3ccc(=O)cc3)c2n1 [Compound 551, 6-[2-methyl-8-(4-oxo-1-pyridyl)imidazo[1,2-b]pyridazin-6-yl]-2-(4-piperidyl)isoquinolin-1-one] | 0.1 to 1 | 0.1 to 1 | 0.1 to 1
Cc1cn2nc(-c3ccc4c(=O)n(C5CCNCC5)ccc4c3)cc(Cc3nnn[nH]3)c2n1 [Compound 536, 6-[2-methyl-8-(1H-tetrazol-5-ylmethyl)imidazo[1,2-b]pyridazin-6-yl]-2-(4-piperidyl) isoquinolin-1-one] | > 10 | > 10 | > 10
Cc1cc(-c2cc(F)c3c(=O)n(C4CCNC5(CC5)C4)ncc3c2)cc2cn(C)nc12 (stereo not drawn) [Compound 554] | 0.1 to 1 | 0.1 to 1 | 0.1 to 1
Cc1cn2nc(-c3ccc4c(=O)n(C5CCNCC5)ccc4c3)cc(CCO)c2n1 [Compound 533, 6-[8-(2-hydroxyethyl)-2-methyl-imidazo[1,2-b]pyridazin-6-yl]-2-(4-piperidyl)isoquinolin-1-one] | 0.1 to 1 | 0.1 to 1 | 0.1 to 1

Source: patent US20250332173A1, “COMPOUNDS AND METHODS FOR MODULATING NUCLEIC ACID SPLICING” (REMIX THERAPEUTICS INC., priority 2021, published 2025)
